{"source": "patent US10537570B2", "about": "“Use of pimobendan for the reduction of heart size and/or the delay of onset of clinical symptoms in patients with asymptomatic heart failure due to mitral valve disease” (priority 2016, dated 2020)", "key": {"[1]": {"system": "dogs suffering from asymptomatic (occult, preclinical) heart failure due to mitral valve disease (MVD)", "experiment": "Interim analysis: pimobendan vs placebo in dogs with asymptomatic heart failure due to MVD", "format": "in vivo"}, "[2]": {"system": "dogs with asymptomatic mitral valve disease", "details": "after addition of pimobendan to ACE inhibitor treatment; Ouellet M et al. 2009; cited from earlier work"}, "[3]": {"system": "dogs with MMVD and echocardiographic and radiographic evidence of cardiomegaly", "details": "dog, in vivo"}, "[4]": {"system": "dogs with MMVD and echocardiographic and radiographic evidence of cardiomegaly", "experiment": "Blinded, placebo controlled study of 360 dogs (preliminary analysis of final results)"}, "dogs": {"system": "dogs", "details": "two dogs; long-term (chronic) clinical therapy; Tissier R et al. 2005; cited from earlier work"}}}
{"smiles": "COc1ccc(-c2nc3ccc(C4=NNC(=O)CC4C)cc3[nH]2)cc1", "note": "(stereo not shown) [pimobendan, 4,5-dihydro-6-[2-(4-methoxyphenyl)-1H-benzimidazol-5-yl]-5-methyl-3(2H)-pyridazinone]", "values": [{"measurement": "extension of survival time (all-cause mortality) compared to placebo", "setting": "[1]; also printed as 5.6 months", "value": "approx. 168 days"}, {"measurement": "prolongation of time to the onset of clinical signs of congestive heart failure compared to placebo", "setting": "[1]; also printed as 12.0 months", "value": "approx. 359 days"}, {"measurement": "long-term changes in the severity of mitral regurgitation", "setting": "[2]", "value": "failed to identify beneficial long-term changes"}, {"measurement": "safety and tolerability", "setting": "[3]", "value": "safe and well tolerated"}, {"measurement": "heart size", "setting": "[4]; compared to the placebo group, measured over the first 35 days of the study, P<0.0001", "value": "reduction in heart size"}, {"measurement": "rate or type of potential adverse events", "setting": "[4]; pimobendan group vs placebo group", "value": "no difference between groups"}, {"measurement": "Median time to the primary endpoint", "setting": "[4]; pimobendan group, 95% CI 856—NA, placebo group 766 days, P=0.0038", "value": 1228, "unit": "days"}, {"measurement": "Prolongation of the preclinical period", "setting": "[4]; vs placebo group", "value": "approximately 15 months"}, {"measurement": "Overall survival, as determined by All Cause Mortality", "setting": "[4]; vs placebo group, P=0.012", "value": "significantly longer"}, {"measurement": "adverse effects", "setting": "dogs", "value": "increased mitral valve regurgitation and myocardial hypertrophy"}]}
